Earlier results in patent US6696276B2, “Vasopermeability-enhancing conjugates” (priority 1988, dated 2004).

Conditions: as little as

Row | Compound | amount eliciting erythema and wheal formation
1 | CCCCC/C=C\C\C=C/C=C/C=C/[C@@H](SC[C@H](N)C(=O)NCC(=O)O)[C@@H](O)CCCC(=O)O [leukotriene D4] | 1 nmol
2 | CCCCC/C=C\C\C=C/C=C/C=C/[C@@H](SC[C@H](NC(=O)CC[C@H](N)C(=O)O)C(=O)NCC(=O)O)[C@@H](O)CCCC(=O)O [leukotriene C4] | 1 nmol
3 | CCCCC/C=C\C\C=C/C=C/C=C/[C@@H](SC[C@H](N)C(=O)O)[C@@H](O)CCCC(=O)O [leukotriene E4] | 1 nmol
